Measurements reported in US9982045B2, “Anti-CDH6 antibody drug conjugates” (Novartis AG, priority 2014, dated 2018).

How the values were obtained:
[1] = tested on: CDH6 expressing cell lines compared to non-expressing cell lines; assay: In vitro cellular activity on panel of CDH6 expressing and non-expressing cell lines; details: OVCAR3 and OVCAR8-CDH6+ compared to OVCAR8; FIG. 12
[2] = tested on: CDH6 expressing primary (patient derived) ovarian tumors; assay: Patient-derived primary ovarian tumor xenograft mouse model (Example 18); assay type: in vivo, nude mice; details: 5 mg/kg i.v. Q14D
Description: Mice were enrolled in the study 48 days post implant with a mean tumor volume of 178 mm^3. […] All groups were dosed at 5 mg/kg.

NOV0712: anti-CDH6 human IgG1 from HuCAL PLATINUM phage display; binds CDH6 EC5; sequence in Table 5
Cellular activity (inhibition of proliferation) [1]: No cellular activity was observed | Anti-tumor activity (tumor volume) [2]: no inhibitory effect upon tumor growth
